Data taken from patent US10206894B2, “Compounds for use in treatment of mucositis” (priority 2011, dated 2019).

Legend:
[1] = test system: radiation-induced oral mucositis, left buccal cheek pouch; conditions: Acute Radiation; published results in nearly identical models; cited from earlier work
[2] = test system: fractionated radiation and cisplatin induced oral mucositis, left buccal cheek pouch; conditions: published results in nearly identical models; cited from earlier work
[3] = test system: FaDu human head and neck cancer xenograft; assay: Tumor growth and response to therapy in FaDu xenograft; type: in vivo, nude mice (nu/nu)
Experimental: Ninety (90) male nude mice (nu/nu) were divided into nine (9) groups of ten […]) mice per group. To ensure that a sufficient number of tumor-bearing animals were available for this study, a total of 100 mice were inoculated s.c. in the flank with 1×10^6 FaDu cells. FaDu (HTB-43) human head and neck cancer cells were obtained from ATCC. These cells were grown in EMEM medium supplemented with 10% Fetal Calf Serum (FCS), 1% penicillin and streptomycin, and 2 mM L-Glutamine. […] The flask was incubated at 37° C. until cells detached. Cells were then sub-cultured at a ratio of 1:3. […] Tumors were measured once every two days with micro-calipers, and tumor volume was calculated as (length×width×width)/2. Where animals were euthanized for tumor volume exceeding the maximum permissible by IACUC rules (1500 mm^3) or tumor ulceration, the last measurement was carried forward in calculations of mean tumor volume.
All animals were weighed every day and their survival recorded, to assess possible differences in animal weight among treatment groups as an indication of possible toxicity resulting from the treatments. […] Any animals whose tumor grew to over 1500 mm^3 were also euthanized.
Further analysis of the tumor volume data was performed by calculating the mean area under the curve (AUC) for the tumor volume for each animal and comparing the groups using an ANOVA on ranks test. Due to the impact of animals euthanized for tumor ulceration or volume in excess of 1500 mm^3, this analysis was performed on data to Day 15 as well as on the full data set to Day 29.

[4] = groups receiving cisplatin chemotherapy 5 mg/kg (with vehicle or Compound X)

Row | Compound | % reduction of animal days with OM scores ≥ 3 [1] | % reduction of animal days with OM scores ≥ 3 [2] | mean weight gain ([3]; cisplatin 5 mg/kg plus vehicle, by Day 15) | average gain of starting weight ([3]; cisplatin 5 mg/kg plus vehicle, by the end of the study) | p, tumor volume AUC to Day 15 vs vehicle control group (ANOVA on ranks) ([3]; cisplatin plus vehicle) | mean tumor volume ([3]; cisplatin plus vehicle, Day 1) | mean tumor volume ([3]; cisplatin plus vehicle, Day 15) | mean tumor volume ([3]; cisplatin plus vehicle, end of the study) | animals euthanized for tumor size [3, 4] | animals euthanized for tumor ulceration [3, 4] | animals survived [3, 4]
1 | N[C@H](CCC(=O)N[C@@H](Cc1c[nH]c2ccccc12)C(=O)O)C(=O)O [SCV-07] | 68.3%-77.6% | 33.3% |  |  |  |  |  |  |  |  | 
2 | N.N.[Cl][Pt][Cl] [cisplatin, reference compound] |  |  | 7.2% | 13.0% | 0.011 | 100 mm^3 | 652 mm^3 | 302 mm^3 | 23% | 26.7% | 50%
